Reference: patent US9458101B2 (priority 2009, dated 2016)

Legend:
[1] = Dissolution of drug for cytotoxicity testing; type: physicochemical; design: key: X*: Did not dissolve at normal pH; details: footnote of Table 3
Procedure: Drug solutions were prepared by dissolving it into 4.5% dimethylsulfoxide and diluting with distilled water to a final concentration of 1 mM. A series of dilutions were prepared and a wavelength scan of the diluted solution was used to determine the wavelength of maximum absorbance for each compound. Five standardized drug concentrations were scanned at this pre-determined wavelength to obtain an estimate of the compound's extinction coefficient.

[2] = test system: A549 (Human lung adenocarcinoma); experiment: cells; type: cell-based; details: A549, 72 hours, precision +/−0.5 or better
Excerpt: (§1) A full factorial experimental design was used, for a total of 28 cases.
(§2) For each (cell line, compound) pair, the following conditions were used, with each condition being assigned to a lane on a microtiter plate: • a. Seven or eight concentration levels between 1×10^−10 M and 1×10^−3 M. • b. A control with cells and media only. • c. A control with cells, media and DMSO only. The DMSO was at a concentration approximately equal to that used in the highest drug concentration level.
(§3) Additionally, 6-8 replicates (wells) of each condition were done on the plate. Drug solutions were prepared by dissolving the solid compounds in DMSO and then diluting in water. An approximately equal number of cells were introduced into each well of the plate and cells were incubated for 72 hours. An MTS assay was performed and absorbance values were measured with a spectrophotometer. Finally, a log IC50 parameter was calculated by fitting a 4-parameter logistic model to the data using an implementation of the Levenberg-Marquardt algorithm.

[3] = test system: CCRF-CEM (Human T-lymphoblastoids from ALL); experiment: cells; type: cell-based; details: 72 hours, precision +/−0.5 or better
Excerpt: as §1, §2, §3

[4] = test system: NCI-H226 (Human lung squamous cell carcinoma); experiment: cells; type: cell-based; details: NCI-H226, 72 hours, precision +/−0.5 or better
Excerpt: as §1, §2, §3

[5] = test system: MCF-7 (Human mammary gland adenocarcinoma); experiment: cells; type: cell-based; details: MCF7, MCF-7, 72 hours, precision +/−0.5 or better
Excerpt: as §1, §2, §3

CEM cells = type: cell-based, Human

SMILES	dissolution at normal pH [1]	IC50 [2] [nM]	IC50 [3] [nM]	IC50 [4] [nM]	IC50 [5] [nM]	fold lower IC50 than IC50 of (39) (CEM cells)
COc1cc2c(c(OCc3ccccc3Cl)c1OC)-c1ccc(OC)c(=O)cc1[C@@H](NC(C)=O)CC2 [Compound 14, N-[(7S)-2,3,10-trimethoxy-9-oxo-1-((phenyl(2-chloro))methoxy)-5,6,7,9-tetrahydrobenzo[α]heptalen-7-yl]acetamide]	X*	–	–	–	–	–
COc1cc2c(c(OC)c1OC)-c1ccc(OC)c(=O)cc1[C@@H](NC(=O)CNC(=O)C(F)(F)F)CC2 [Compound 28a]	–	631	39.8	316	–	–
COc1cc2c(c(OC)c1OC)-c1ccc(SC)c(=O)cc1[C@@H](NC(=O)CNC(=O)C(F)(F)F)CC2 [Compound 47a]	–	63.1	6.31	50.1	126000	–
CCOc1cc2c(c(OC)c1OC)-c1ccc(SC)c(=O)cc1[C@@H](N(C(C)=O)C(=O)CNC(=O)C(F)(F)F)CC2 [Compound 49, N-[(7S)-3-ethoxy-1,2-dimethoxy-10-methylsulfanyl-9-oxo-5,6,7,9-tetrahydrobenzo[α]heptalen-7-yl]-N-[(trifluoroacetyl)glycyl]acetamide]	–	–	–	–	–	about 8 fold
